# Source: PubChem BioAssay (NCI)
#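 Cultured in 96-well plates, cells were exposed to test compound for 48 hours across five concentrations. TGI: concentration producing complete growth inhibition.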
# Columns and labels:
# Experiment in all cases: inhibition of tumour cell growth, NCI panel, 48 h
# 786-0 renal = test system: 786-0 renal
# DMS 273 small cell lung = test system: DMS 273 small cell lung
# LXFL 529 NSCLC = test system: LXFL 529 NSCLC
# SW-620 colon = test system: SW-620 colon
# DLD-1 colon = test system: DLD-1 colon
# HCT-15 colon = test system: HCT-15 colon
# COLO 205 colon = test system: COLO 205 colon
# SK-OV-3 ovarian = test system: SK-OV-3 ovarian
# U251 CNS = test system: U251 CNS
# DMS 114 small cell lung = test system: DMS 114 small cell lung
# MDA-N = test system: MDA-N
# DU-145 prostate = test system: DU-145 prostate
# BT-549 breast = test system: BT-549 breast
SMILES,TGI (786-0 renal),TGI (DMS 273 small cell lung),TGI (LXFL 529 NSCLC),TGI (SW-620 colon),TGI (DLD-1 colon),TGI (HCT-15 colon),TGI (COLO 205 colon),TGI (SK-OV-3 ovarian),TGI (U251 CNS),TGI (DMS 114 small cell lung),TGI (MDA-N),TGI (DU-145 prostate),TGI (BT-549 breast)
O=c1ccc2ccccc2c2ccccc12,10.1 µM,14.3 µM,10.4 µM,10.9 µM,14.7 µM,5.64 µM,18.3 µM,13 µM,4.93 µM,4.7 µM,,,
CC(C)N(C(=O)C12C3C4C1C1C2C3C41C(=O)N(C(C)C)C(C)C)C(C)C (configuration not stated),> 50 µM,> 50 µM,> 50 µM,> 50 µM,> 50 µM,> 50 µM,> 50 µM,> 50 µM,> 50 µM,> 50 µM,,,
CN(C)CC(/C(Cc1ccccc1)=N\NC(=S)NN)c1ccccc1 (configuration not stated),> 100 µM,> 100 µM,> 100 µM,> 100 µM,> 100 µM,> 100 µM,> 100 µM,> 100 µM,> 100 µM,> 100 µM,,,
COc1cc(-c2cc(=O)c3ccccc3[nH]2)cc(OC)c1OC,> 75 µM,> 75 µM,> 75 µM,> 75 µM,> 75 µM,> 75 µM,> 75 µM,> 75 µM,> 75 µM,> 75 µM,,,
CN(C)C(F)=PC(F)(F)F (configuration not stated),> 100 µM,> 100 µM,> 100 µM,> 100 µM,> 100 µM,> 100 µM,> 100 µM,> 100 µM,> 100 µM,> 100 µM,,,
CSC(=N)N1N=C2/C(=C/c3ccccc3)CCC[C@H]2[C@H]1c1ccccc1,20.3 µM,11.8 µM,16.7 µM,15.3 µM,14.5 µM,20.9 µM,2.93 µM,18.2 µM,25.9 µM,7.83 µM,,,
Oc1cccnc1/C=N/OCc1ccccc1,> 100 µM,> 100 µM,> 100 µM,> 100 µM,> 100 µM,> 100 µM,> 100 µM,> 100 µM,> 100 µM,> 100 µM,,,
COC(=O)CCC(NC(=S)N/N=C(\C)c1cnccn1)C(=O)OC (configuration not stated),> 100 µM,,> 100 µM,> 100 µM,> 100 µM,> 100 µM,> 100 µM,> 100 µM,> 100 µM,54.2 µM,,,
O=C(O)C12CC3CC(CC(F)(C3)C1)C2,> 100 µM,> 100 µM,> 100 µM,> 100 µM,> 100 µM,,> 100 µM,> 100 µM,> 100 µM,> 100 µM,,,
COCCOCOC(C)(C)[C@H](CCO)O[Si](c1ccccc1)(c1ccccc1)C(C)(C)C,,,21.6 µM,25.2 µM,22.4 µM,17.5 µM,33.9 µM,26.5 µM,24.5 µM,,,,
C/C(N=NS(=O)(=O)c1ccc(C)cc1)=C1\C=CC=CN1O,> 100 µM,> 100 µM,> 100 µM,> 100 µM,> 100 µM,> 100 µM,,> 100 µM,> 100 µM,> 100 µM,,,
O=C(Nc1nc2ncn(CCO)c2c(=O)[nH]1)c1ccccc1,> 100 µM,> 100 µM,> 100 µM,> 100 µM,> 100 µM,> 100 µM,> 100 µM,> 100 µM,> 100 µM,> 100 µM,,,
O=c1cc(CNC2CC3CCC2C3)[nH]c(=O)[nH]1 (configuration not stated),> 100 µM,,,> 100 µM,,> 100 µM,> 100 µM,> 100 µM,> 100 µM,,> 100 µM,> 100 µM,> 100 µM
COC(=O)c1ccc(C=C(C#N)C#N)cc1,33.4 µM,35.2 µM,37.4 µM,45.1 µM,47.9 µM,> 100 µM,74.6 µM,> 100 µM,61.5 µM,49.4 µM,,,
COC(=O)[C@@]1(NC(=O)C(CC(=O)OC(C)(C)C)NC(=O)OC(C)(C)C)C[C@H]1C (some centres not stated),> 100 µM,,,> 100 µM,,> 100 µM,> 100 µM,> 100 µM,> 100 µM,,> 100 µM,> 100 µM,> 100 µM
COc1cccc(C(NC2=NCCC=N2)c2cc3c(cc2O)OCO3)c1O (configuration not stated),25.6 µM,,,41.8 µM,,27.7 µM,> 100 µM,> 100 µM,31.9 µM,,> 100 µM,> 100 µM,33.3 µM
Cc1ccc(/N=N/C(=NNC(=O)c2ccc(C)cc2)c2ccc(N(C)C)cc2)cc1,> 100 µM,,,> 100 µM,,91.2 µM,31.1 µM,76.2 µM,> 100 µM,,46.1 µM,73.9 µM,62.4 µM

SMILES,TGI (786-0 renal),TGI (DMS 273 small cell lung),TGI (LXFL 529 NSCLC),TGI (SW-620 colon),TGI (DLD-1 colon),TGI (HCT-15 colon),TGI (COLO 205 colon),TGI (SK-OV-3 ovarian),TGI (U251 CNS),TGI (DMS 114 small cell lung),TGI (MDA-N),TGI (DU-145 prostate),TGI (BT-549 breast)
c1cncc(CSc2ncnc3nc[nH]c23)c1,> 100 µM,,,> 100 µM,,> 100 µM,> 100 µM,> 100 µM,> 100 µM,,> 100 µM,> 100 µM,> 100 µM
O=c1ccn(/C=C/C(O)C(O)CO)c(=O)[nH]1 (configuration not stated),> 100 µM,> 100 µM,> 100 µM,> 100 µM,> 100 µM,> 100 µM,> 100 µM,> 100 µM,> 100 µM,> 100 µM,,,
CCCC(=O)OCOC(=O)N(C)N=Nc1ccc(C(=O)OCC)cc1,59.8 µM,,,66.3 µM,,75.4 µM,51.5 µM,> 100 µM,84.1 µM,,> 100 µM,64.1 µM,76.9 µM
O=C(NCCCCCCCN1CCCCCCC1)C(C1CCCCC1)C1CCCCC1,12.6 µM,,,56.1 µM,,15.2 µM,8.64 µM,23.6 µM,20.8 µM,,21.8 µM,27.4 µM,28.7 µM
CS(=O)(=O)C1(Br)S(=O)(=O)OCCOS1(=O)=O,> 100 µM,> 100 µM,> 100 µM,> 100 µM,> 100 µM,> 100 µM,> 100 µM,> 100 µM,> 100 µM,> 100 µM,,,
CCOP(=O)(OCC)C(Cc1ccc(Cl)cc1)NS(=O)(=O)c1ccc(C)cc1 (configuration not stated),> 100 µM,,,> 100 µM,,> 100 µM,> 100 µM,> 100 µM,> 100 µM,,> 100 µM,> 100 µM,> 100 µM
O=[N+]([O-])C(=C/c1cccc2ccccc12)/C(=C\c1cccc2ccccc12)[N+](=O)[O-],3.72 µM,,,4.5 µM,,3.95 µM,> 21.7 µM,19.1 µM,4.32 µM,,8.25 µM,8.77 µM,4.26 µM
CCCCN(C)C(=O)C1=C(C)NC(C)=C(C(=O)N(C)CCCC)C1,> 100 µM,,,> 100 µM,,> 100 µM,> 100 µM,> 100 µM,> 100 µM,,> 100 µM,> 100 µM,> 100 µM
CC(C)CCC[C@@H](C)[C@H]1CC[C@H]2C3=C[C@H](OS(=O)(=O)O)[C@@]4(O)C[C@@H](O)CC[C@]4(C)[C@@]3(O)CC[C@]12C,> 100 µM,,,> 100 µM,,> 100 µM,> 100 µM,> 100 µM,> 100 µM,,> 100 µM,> 100 µM,> 100 µM
CSc1ccc2c(cc1=O)C(NC(=O)c1ccc(C#N)cc1)CCc1cc(O)c(O)c(O)c1-2 (configuration not stated),> 100 µM,> 100 µM,44.4 µM,37.7 µM,70.2 µM,36.6 µM,38.6 µM,63.7 µM,45.3 µM,44.9 µM,,,
COc1ccc(NC(=O)C(=O)Cc2nc3ccc(C(=O)c4ccccc4)cc3[nH]c2=O)c([N+](=O)[O-])c1,> 100 µM,,,79.8 µM,,> 100 µM,40 µM,> 100 µM,> 100 µM,,> 100 µM,> 100 µM,> 100 µM
COC1=C2CC(C)CC(OC)C(OC(=O)CCCN)C(C)/C=C(\C)C(OC(N)=O)C(OC)/C=C\C=C(/C)C(=O)NC(=CC1=O)C2=O (configuration not stated),18.1 µM,,,17.7 µM,,14.5 µM,9.48 µM,35.1 µM,34.5 µM,,20.7 µM,30.5 µM,15.8 µM
NC(=O)c1sc2nc3ccccc3n2c1N,> 100 µM,,,> 100 µM,,> 100 µM,> 100 µM,89.4 µM,87.4 µM,,> 100 µM,> 100 µM,76.8 µM
N#Cc1c(-c2ccccc2)cc(-c2ccccc2)n(C2OCC(O)C(O)C2O)c1=S (configuration not stated),49.1 µM,,,33.5 µM,,60.6 µM,56.9 µM,27.3 µM,30.4 µM,,55 µM,49.3 µM,44 µM
O=C1C=C(C2=C(C3=CC(=O)c4ccccc4C3=O)C(=O)c3ccccc3C2=O)C(=O)c2ccccc21,12.6 µM,,,20.5 µM,,28.9 µM,17.3 µM,66.5 µM,18.1 µM,,5.65 µM,16.5 µM,28.9 µM
Nc1nc2ncn(CC(O)CO)c2c(=O)[nH]1 (configuration not stated),> 100 µM,> 100 µM,> 100 µM,> 100 µM,> 100 µM,> 100 µM,> 100 µM,> 100 µM,> 100 µM,> 100 µM,,,
CCOC(=O)/C=C\C(C#N)(C#N)N=Cc1ccsc1,5.01 µM,,,4.11 µM,,10.1 µM,3.4 µM,35.6 µM,33.1 µM,,24.5 µM,30.7 µM,12.1 µM
